{"source": "patent US9078907B2", "about": "“Immunoregulator compounds” (Universita Degli Studi Di Roma “Tor Vergata”, priority 2001, dated 2015)", "key": {"Cathepsin D": {"tested_on": "Cathepsin D", "test": "Western blot of Cathepsin D in macrophage phagosomal fractions after latex beads internalisation", "format": "cell-based, human", "conditions": "5 μM S1P, 24 hours after latex beads internalisation", "protocol": "In order to analyse the expression of an intralysosomal protein within beads containing phagolysosomes the macrophage phagosomal fraction was separated. Particularly, cells were incubated with sterile latex beads ([…]) (Sigma), 1: 200 diluted, in culture medium for 1 hour in the presence of 5% CO2 and then treated with 5 μM S1P.\nSeparation of the phagosomes was carried out by centrifugation on sucrose gradient. Cells were washed three times with PBS (twice for 10 minutes) and then again incubated for 24 hours at 37°C. Following the internalisation and 24 hour incubation period cells were washed with cold PBS and collected using a little scraper in PBS at 4° C., then centrifuged at 2000 rpm for 10 minutes at 4° C. and finally washed with homogenising buffer (250 mM sucrose, 3 mM imidazole, pH 7.4) again at 4° C. Cellular pellet was suspended in 1 ml homogenising buffer and cells were lysed with an homogenizer. Phagosomes were isolated by centrifugation on sucrose gradient. Cells, suspended in 1 ml of PBS, were added to 1 ml of 40% sucrose solution and such a suspension was stratified on 2 ml of 62% sucrose solution in ultracentrifuge tubes. Then 2 ml of 35%, 25% and 10% sucrose solutions were stratified (all the solutions were prepared in 3 mM imidazole, pH 7.4). The tubes were ultra-centrifuged using SW41 rotor at 100000 g at 4° C. […]"}, "[1]": {"tested_on": "MTB-FITC infected macrophages", "test": "Phagolysosome maturation by flow cytometry of FITC-labelled MTB infected macrophages", "format": "cell-based, human", "conditions": "MTB-FITC MOI 1 for 3 hours, 5 μM S1P for 30 minutes; S1P non-treated 63.4%", "protocol": "In some experiments MTB aliquots, after thawing at room temperature, centrifuged at 10000 rpm for 10 minutes, suspended in PBS and sonicated for 1-2 minutes, were labelled with fluorescein isothiocyanate (FITC) (Sigma). FITC, pre-suspended at 1 μg/ml concentration, was added to the bacterial suspension, which was incubated at 37° C. in the presence of 5% CO2 for about 90 minutes. At the end of the incubation the bacterial suspension was washed three times with centrifugation at 14000 rpm for 15 minutes and suspended in PBS at required concentration.\nBy virtue of extreme sensitivity of fluorescein isothiocyanate (FITC) to acid pHs this molecule was used to monitor the phagosome acidity and have therefore information about maturation stage of phagolysosome. To this aim, bacteria were labelled with fluorescein isothiocyanate (FITC) as above described. Infection was carried out using FITC labelled bacteria. Then, cells were washed after 3 hours and stimulated for 30 minutes with 5 μM sphingosine 1-phosphate and following 1.5% paraformaldehyde (PFA) fixated and finally monitored by flow cytofluorometry.\nIn order to evaluate the effect of S1P on a specific antimicrobial activity as the maturation of phagolysosome, the infection with FITC-labelled MTB was carried out and the fluorescence values of FITC-MTB were used as indicators of the phagolysosome maturation. […]"}, "[2]": {"tested_on": "Mycobacterium tuberculosis", "test": "Colony forming units of H37Rv M. tuberculosis in differentiated THP-1 cells", "format": "cell-based", "conditions": "THP-1 macrophage cell line, MOI 1:10 or 1:1, 5 μM, up to 5 or 7 days", "protocol": "Human monocytic THP-1 leukemia line cells were used in this example as a model for macrophage response. In order to obtain macrophage phenotype, 5×10^5/ml THP-1 cells were induced to differentiate by 48 hours incubation in the presence of 20 ng/ml Phorbol Myristate Acetate (PMA). Differentiated THP-1 cells (dTHP-1) were then centrifuged three times and suspended in complete medium [RPMI 1640 (Gibco BRL) supplemented with 10% fetal bovine serum, 5 mM L-glutamine) (Invitrogen), 1 mM sodium pyruvate (Gibco BRL) and non-essential amino acids (Euroclone), 5 μg/ml gentamicin (Invitrogen)]. dTHP-1 were then infected for 3 hours with H37Rv M. tuberculosis at the multiplicity of infection of 1:10 (FIG. 8A) or 1:1 (FIG. 8B) bacterium/cell. After infection cells were washed three times with RPMI 1640 and incubated in complete medium for further 1, 2 and 5 days (FIG. 8A) or 1 and 7 days (FIG. 8B) in the presence or absence of sphingosine 1-phosphate used at the concentration of 5 μM. […]"}}}
{"smiles": "CCCCCCCCCCCCC/C=C/[C@@H](O)[C@@H](N)COP(=O)(O)O", "note": "[S1P, D-erythro-sphingosine 1-phosphate]", "values": [{"measurement": "amount of intralysosomal protein (Cathepsin D) in the phagosomal fraction versus non-treated macrophages", "setting": "Cathepsin D", "result": "higher"}, {"measurement": "% of fluorescent macrophages (FITC-MTB fluorescence)", "setting": "[1]", "result": 38.9, "unit": "%"}, {"measurement": "intracellular replication of Mycobacterium tuberculosis (CFU)", "setting": "[2]", "result": "inhibits"}]}
